According to the RepoRT retention time repository (doi:10.1021/ac300829f):

Experiment: RP, Thermo Scientific Hypersil GOLD, 150 × 2.1 mm, 1.9 µm, 0.5 mL/min, estimated dead time 0.66 min; A: water + 0.1% formic acid, pH 3; B: acetonitrile + 0.1% formic acid, pH 3; gradient (min/%B) 0/0 2/0 13/100 15.5/100 19/0
Conditions: stereoisomer not certain

Compound	LC retention time [min]
OCc1cccc(O)c1 [3-hydroxybenzyl alcohol]	5.1
O=C(O)CC(Nc1ncnc2c1ncn2C1OC(CO)C(O)C1O)C(=O)O (centres undefined) [succinyladenosine]	4.8
NC(N)=NCC(=O)O [guanidoacetic acid]	0.9
Nc1nc2nc[nH]c2c(=O)[nH]1 [guanine]	1.1
